From US8192962B2, “Processes for detecting toxic substances” (Daikin Industries, Ltd., priority 2001, dated 2012)

Test system: Mitochondria-located protein genes
Test: DNA chip mRNA expression in yeast, mitochondria-located protein genes (Table 2)
Assay type: cell-based, Saccharomyces cerevisiae S288C
Conditions: cells incubated two hours with the chemical substance
Procedure, shortened: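 First, S288C yeast grown in YPD at 25° C. are dosed in log phase with one toxicant (growth-inhibiting, not lethal) for 2 h. Next, total RNA is extracted and poly(A) mRNA isolated and reverse-transcribed with Cy3/Cy5-dUTP. Finally, whole-genome chip fluorescence is read relative to unexposed cells.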

In the case of `S=C([S-])NCCNC(=S)[S-].[Zn+2]` [(11), zinc N,N′-ethylenebis(dithiocarbamate)], the “The level of expressed mRNA in the presence of chemical substance/The level of expressed mRNA in the absence of chemical substance” value (yeast gene YAL039C) is reported as 1.1, the “The level of expressed mRNA in the presence of chemical substance/The level of expressed mRNA in the absence of chemical substance” value (yeast gene YBL022C) is reported as 1.1 and the “The level of expressed mRNA in the presence of chemical substance/The level of expressed mRNA in the absence of chemical substance” value (yeast gene YBL030C) is reported as 1.1. For the same molecule, the “The level of expressed mRNA in the presence of chemical substance/The level of expressed mRNA in the absence of chemical substance” value (yeast gene YBL038W) was 0.7, the “The level of expressed mRNA in the presence of chemical substance/The level of expressed mRNA in the absence of chemical substance” value (yeast gene YBL099W) was 2.1 and the “The level of expressed mRNA in the presence of chemical substance/The level of expressed mRNA in the absence of chemical substance” value (yeast gene YBR003W) was 1.3. For the same molecule, the “The level of expressed mRNA in the presence of chemical substance/The level of expressed mRNA in the absence of chemical substance” value (yeast gene YBR044C) was 1.1, the “The level of expressed mRNA in the presence of chemical substance/The level of expressed mRNA in the absence of chemical substance” value (yeast gene YBR091C) was 0.7 and the “The level of expressed mRNA in the presence of chemical substance/The level of expressed mRNA in the absence of chemical substance” value (yeast gene YBR122C) was 1.2. For the same molecule, the “The level of expressed mRNA in the presence of chemical substance/The level of expressed mRNA in the absence of chemical substance” value (yeast gene YBR185C) was 1.2, the “The level of expressed mRNA in the presence of chemical substance/The level of expressed mRNA in the absence of chemical substance” value (yeast gene YBR221C) was 1.2 and the “The level of expressed mRNA in the presence of chemical substance/The level of expressed mRNA in the absence of chemical substance” value (yeast gene YBR251W) was 1.5. For the same molecule, the “The level of expressed mRNA in the presence of chemical substance/The level of expressed mRNA in the absence of chemical substance” value (yeast gene YBR282W) was 0.9, the “The level of expressed mRNA in the presence of chemical substance/The level of expressed mRNA in the absence of chemical substance” value (yeast gene YCL057W) was 1.6 and the “The level of expressed mRNA in the presence of chemical substance/The level of expressed mRNA in the absence of chemical substance” value (yeast gene YCR046C) was 1.5. The “The level of expressed mRNA in the presence of chemical substance/The level of expressed mRNA in the absence of chemical substance” value (yeast gene YCR083W) was 1.8, the “The level of expressed mRNA in the presence of chemical substance/The level of expressed mRNA in the absence of chemical substance” value (yeast gene YDL067C) was 1.4 and the “The level of expressed mRNA in the presence of chemical substance/The level of expressed mRNA in the absence of chemical substance” value (yeast gene YDL181W) was 0.8. For the same molecule, the “The level of expressed mRNA in the presence of chemical substance/The level of expressed mRNA in the absence of chemical substance” value (yeast gene YDL198C) was 2.5, the “The level of expressed mRNA in the presence of chemical substance/The level of expressed mRNA in the absence of chemical substance” value (yeast gene YDR079W) was 1.3 and the “The level of expressed mRNA in the presence of chemical substance/The level of expressed mRNA in the absence of chemical substance” value (yeast gene YDR178W) was 2.0. For the same molecule, the “The level of expressed mRNA in the presence of chemical substance/The level of expressed mRNA in the absence of chemical substance” value (yeast gene YDR231C) was 1.3, the “The level of expressed mRNA in the presence of chemical substance/The level of expressed mRNA in the absence of chemical substance” value (yeast gene YDR258C) was 1.7 and the “The level of expressed mRNA in the presence of chemical substance/The level of expressed mRNA in the absence of chemical substance” value (yeast gene YDR298C) was 1.2. For the same molecule, the “The level of expressed mRNA in the presence of chemical substance/The level of expressed mRNA in the absence of chemical substance” value (yeast gene YDR347W) was 0.8, the “The level of expressed mRNA in the presence of chemical substance/The level of expressed mRNA in the absence of chemical substance” value (yeast gene YDR377W) was 1.4 and the “The level of expressed mRNA in the presence of chemical substance/The level of expressed mRNA in the absence of chemical substance” value (yeast gene YDR529C) was 0.8. For the same molecule, the “The level of expressed mRNA in the presence of chemical substance/The level of expressed mRNA in the absence of chemical substance” value (yeast gene YEL024W) was 0.9, the “The level of expressed mRNA in the presence of chemical substance/The level of expressed mRNA in the absence of chemical substance” value (yeast gene YEL039C) was 1.7 and the “The level of expressed mRNA in the presence of chemical substance/The level of expressed mRNA in the absence of chemical substance” value (yeast gene YER178W) was 2.5. For the same molecule, the “The level of expressed mRNA in the presence of chemical substance/The level of expressed mRNA in the absence of chemical substance” value (yeast gene YFL016C) was 1.2, the “The level of expressed mRNA in the presence of chemical substance/The level of expressed mRNA in the absence of chemical substance” value (yeast gene YGL018C) was 1.1 and the “The level of expressed mRNA in the presence of chemical substance/The level of expressed mRNA in the absence of chemical substance” value (yeast gene YGL187C) was 0.7. The “The level of expressed mRNA in the presence of chemical substance/The level of expressed mRNA in the absence of chemical substance” value (yeast gene YGL191W) was 1.6, the “The level of expressed mRNA in the presence of chemical substance/The level of expressed mRNA in the absence of chemical substance” value (yeast gene YGR008C) was 2.6 and the “The level of expressed mRNA in the presence of chemical substance/The level of expressed mRNA in the absence of chemical substance” value (yeast gene YGR028W) was 1.1. For the same molecule, the “The level of expressed mRNA in the presence of chemical substance/The level of expressed mRNA in the absence of chemical substance” value (yeast gene YGR062C) was 1.6, the “The level of expressed mRNA in the presence of chemical substance/The level of expressed mRNA in the absence of chemical substance” value (yeast gene YGR076C) was 1.7 and the “The level of expressed mRNA in the presence of chemical substance/The level of expressed mRNA in the absence of chemical substance” value (yeast gene YGR082W) was 1.3. The “The level of expressed mRNA in the presence of chemical substance/The level of expressed mRNA in the absence of chemical substance” value (yeast gene YGR174C) was 1.3, the “The level of expressed mRNA in the presence of chemical substance/The level of expressed mRNA in the absence of chemical substance” value (yeast gene YGR244C) was 1.8 and the “The level of expressed mRNA in the presence of chemical substance/The level of expressed mRNA in the absence of chemical substance” value (yeast gene YHR008C) was 2.1. The “The level of expressed mRNA in the presence of chemical substance/The level of expressed mRNA in the absence of chemical substance” value (yeast gene YIL155C) was 1.3, the “The level of expressed mRNA in the presence of chemical substance/The level of expressed mRNA in the absence of chemical substance” value (yeast gene YJL096W) was 1.2 and the “The level of expressed mRNA in the presence of chemical substance/The level of expressed mRNA in the absence of chemical substance” value (yeast gene YJL102W) was 0.7. The “The level of expressed mRNA in the presence of chemical substance/The level of expressed mRNA in the absence of chemical substance” value (yeast gene YJL133W) was 1.2, the “The level of expressed mRNA in the presence of chemical substance/The level of expressed mRNA in the absence of chemical substance” value (yeast gene YJL166W) was 1.4 and the “The level of expressed mRNA in the presence of chemical substance/The level of expressed mRNA in the absence of chemical substance” value (yeast gene YJL180C) was 1.4. The “The level of expressed mRNA in the presence of chemical substance/The level of expressed mRNA in the absence of chemical substance” value (yeast gene YJR045C) was 1.4 and the “The level of expressed mRNA in the presence of chemical substance/The level of expressed mRNA in the absence of chemical substance” value (yeast gene YJR077C) was 1.6.
